Source: patent publication US20070167628A1, “Thiazole-2-carboxamide derivatives for use as hippar agonists in the treatment of i.a. dyslipidemia” (priority 2003, published 2007)

Columns and labels:
Assay type in all cases: cell-based
Details in all cases: SPAP reporter
[1] = biological target: T1, HPPARα (Homo sapiens, UniProt Q07869); test: Transient transfection (transactivation) assay, hPPAR alpha-GAL4 chimera in CV-1 cells
T1 construct: expressed in transfected cells; host or cells: CV-1 cells
T1 sequence (Q07869 239-466 limits assumed): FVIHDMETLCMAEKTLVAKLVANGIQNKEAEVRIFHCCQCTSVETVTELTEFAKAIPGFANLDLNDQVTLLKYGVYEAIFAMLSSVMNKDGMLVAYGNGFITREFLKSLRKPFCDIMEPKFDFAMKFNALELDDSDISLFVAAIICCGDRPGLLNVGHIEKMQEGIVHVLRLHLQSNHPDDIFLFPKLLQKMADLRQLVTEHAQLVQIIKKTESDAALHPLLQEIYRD
Excerpt: (§1) Compounds were screened for functional potency in transient transfection assays in CV-1 cells for their ability to activate the PPAR subtypes (transactivation assay). A previously established chimeric receptor system was utilized to allow comparison of the relative transcriptional activity of the receptor subtypes on the same target gene and to prevent endogenous receptor activation from complicating the interpretation of results. See, for example, Lehmann, J. M.; Moore, L. B.; Smith-Oliver, T. A.; Wilkison, W. O.; Willson, T. M.; Kliewer, S. A., An antidiabetic thiazolidinedione is a high affinity ligand for peroxisome proliferator-activated receptor gamma (PPARgamma), J. Biol. Chem., 270, 12953-6 (1995). The ligand binding domains for murine and human PPAR alpha, PPAR gamma, and PPAR delta were each fused to the yeast transcription factor GAL4 DNA binding domain. CV-1 cells were transiently transfected with expression vectors for the respective PPAR chimera along with a reporter construct containing five copies of the GAL4 DNA binding site driving expression of secreted placental alkaline phosphatase (SPAP) and beta-galactosidase. After 16 h, the medium was exchanged to DME medium supplemented with 10% delipidated fetal calf serum and the test compound at the appropriate concentration. […]

[2] = biological target: T2, HPPARγ (Homo sapiens, UniProt P37231); test: Transient transfection (transactivation) assay, hPPAR gamma-GAL4 chimera in CV-1 cells
T2 construct: expressed in transfected cells; host or cells: CV-1 cells
T2 sequence (P37231 238-503 limits assumed): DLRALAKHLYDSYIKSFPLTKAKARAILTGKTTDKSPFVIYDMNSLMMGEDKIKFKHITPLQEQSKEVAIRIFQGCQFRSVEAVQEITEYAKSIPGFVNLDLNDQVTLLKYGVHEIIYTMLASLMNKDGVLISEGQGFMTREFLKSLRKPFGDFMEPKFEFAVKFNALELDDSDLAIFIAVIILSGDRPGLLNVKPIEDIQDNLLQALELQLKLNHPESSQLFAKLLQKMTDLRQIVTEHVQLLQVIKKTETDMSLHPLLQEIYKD
Excerpt: as §1

[3] = biological target: T3, HPPARδ (Homo sapiens, UniProt Q03181); test: Transient transfection (transactivation) assay, hPPAR delta-GAL4 chimera in CV-1 cells
T3 construct: expressed in transfected cells; host or cells: CV-1 cells
T3 sequence (Q03181 211-439 limits assumed): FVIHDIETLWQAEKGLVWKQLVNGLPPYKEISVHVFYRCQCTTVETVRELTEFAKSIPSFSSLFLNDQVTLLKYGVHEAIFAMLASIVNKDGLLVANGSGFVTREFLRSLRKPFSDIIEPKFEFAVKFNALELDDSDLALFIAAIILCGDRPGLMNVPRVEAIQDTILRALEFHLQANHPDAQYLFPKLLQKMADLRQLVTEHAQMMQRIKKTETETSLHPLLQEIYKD
Excerpt: as §1

Cc1nc(C(=O)NCc2ccc(OC(C)(C)C(=O)O)cc2)sc1-c1ccc(C(C)C)cc1 [Example 1, 2-methyl-2-[(4-{[({4-methyl-5-[4-(1-methylethyl)phenyl]-1,3-thiazol-2-yl}carbonyl)amino]methyl}phenyl)oxy]propanoic acid]
EC50 [1]: 0.008 µM | EC50 [2]: 0.19 µM | EC50 [3]: 6.1 µM
